Measurements: patent publication US6727227B1, “Tetrapetide revealing geroprotective effect, pharmacological substance on its basis, and the method of its application” (Obschestvo S Ogranichennoi Otvetstven-Nostiju “Klinika …, priority 2002, dated 2004)
Read-outs that look alike come from different tables or passages of the source. Marks after values point to notes of the source that are not given here. Residues, ends and D or L forms follow the SMILES beside them.

What was measured:
[1] = test system: Drosophila melanogaster of HEM strain; assay: Life span and ageing rate, HEM strain; format: in vivo; settings: for 90% (the age, which 90% of the individuals reach) / ALS (average life span) / MRDT (mortality-rate doubling time) / Me (median life span) / R · 10^−2 (parameter of Gomperz equation): 0.00001% of medium
From the text: L-Ala-L-Glu-L-Asp-Gly tetrapeptide (SEQ ID NO: 1) was applied in Drosophila melanogaster larvae of the 2nd age of HEM strain selected for a high ageing rate (20). HEM strain is characterised by the unique dynamics of embryonic mortality, which consists in an increased frequency of early embryonic lethal outcomes from 65% on the 1st day of egg-laying up to 95% on the 4th day, in a reduced average life span (29 days), and in a raised intensity of lipid peroxide oxidation.
L-Ala-L-Glu-L-Asp-Gly tetrapeptide (SEQ ID NO: 1) was added in proportion 0.00001% of the culture medium weight, which was an extremely low dose. The doses described in literature on the influence of various substances on Drosophila melanogaster usually ranged from 0.001 to 0.01%.

catalase = assay: Catalase activity in homogenates of 14 days old flies of LA strain; format: in vivo, Drosophila melanogaster of LA strain
Experimental: The impact produced by L-Ala-L-Glu-L-Asp-Gly tetrapeptide (SEQ ID NO: 1) on catalase activity, the content of the products of lipid peroxide oxidation (LPO), life span, and the ageing rate were studied in Drosophila melanogaster of LA strain.
L-Ala-L-Glu-L-Asp-Gly tetrapeptide (SEQ ID NO: 1) was applied in the larvae of the 3rd age in dose 0.00001% of the culture medium weight, which constituted approximately 0.015 mg/100 ml. Catalase activity was estimated by generally accepted methods in the homogenates of adult 14 days old flies. The experiment was carried out with a subsequent repetition.
Regression and dispersal analyses served as the basic technique of statistic processing. The authenticity of differences was confirmed by the method of minimal relevant diversity.

[2] = test system: Drosophila melanogaster of “wild” Canton-S strain; settings: for ALS ± statistic errors / Alterations in ALS: Canton-S; for Alterations in ALS: versus control
Experimental: In this research Drosophila melanogaster of “wild” Canton-S strain were employed.
L-Ala-L-Glu-L-Asp-Gly tetrapeptide (SEQ ID NO: 1) in the solution form was introduced into the culture medium provided for the growth of insects, which was cooled down to 50-60° C., with subsequent careful stirring and depositing it into test tubes.
To make the conditions of both the control and experimental population development identical, an amount of sodium chloride equal to that used for L-Ala-L-Glu-L-Asp-Gly tetrapeptide (SEQ ID NO: 1) solution was introduced into the culture medium for the control. The concentration of all the substances employed was calculated by the ratio to the mass of the culture medium provided for reproduction.
4-day old female flies underwent a randomly selected mating with males for 72 hours, one couple per each test tube, after which parental couples were removed from the test tubes. To form every new generation the posterity of 50 to 80 couples was used.
Life span (LS) was investigated on laboratory populations, each of them consisting of 90 individuals of each sex. Immediately after hatching the flies were randomly placed in test tubes, 10 individuals in each. Substitution of the culture medium was carried out 3 times a week.
Average values (ALS) and standard errors calculated by the traditional method were applied as life span distribution parameters. Average values were compared to each other with the application of Student t-criterion.
For experimental study 6 concentrations of L-Ala-L-Glu-L-Asp-Gly tetrapeptide (SEQ ID NO: 1) were selected: 0.01×, 0.1×, 1×, 5×, 7.5×, and 12.5×10^−6% of the culture medium weight.

[3] = test system: Drosophila melanogaster of EA strain; assay: Life span and ageing rate, EA strain; format: in vivo
Experimental: Drosophila melanogaster of EA strain served as a model for studying the influence of L-Ala-L-Glu-L-Asp-Gly tetrapeptide (SEQ ID NO: 1) on catalase activity, tissue chemoluminescence, and life span.
One-day old flies were placed in test tubes, 10 individuals of the same sex in each. Every 5 to 7 days they were transferred to a fresh medium, taking into account the number of deceased individuals. The average and maximal life spans were defined. The ageing rate was calculated by the parameters of Gomperz equation.
L-Ala-L-Glu-L-Asp-Gly tetrapeptide (SEQ ID NO: 1) was applied in the larvae of the 3rd age in dose 0.00001% of the culture medium weight, which constituted approximately 0.015 mg/100 ml. Catalase activity and the intensity of chemoluminescence were estimated in the homogenates of adult 7-day old flies by generally accepted methods. The experiment was conducted with a subsequent 5 repetition.
Regression and dispersal analyses served as the basic technique of statistic processing.

[4] = females, concentration 0.01 ×10^−6%
[5] = females, concentration 0.1 ×10^−6%
[6] = females, concentration 1.0 ×10^−6%
[7] = females, concentration 5.0 ×10^−6%
[8] = females, concentration 7.5 ×10^−6%
[9] = females, concentration 12.5 ×10^−6%
[10] = males, concentration 0.01 ×10^−6%
[11] = males, concentration 0.1 ×10^−6%
[12] = males, concentration 1.0 ×10^−6%
[13] = males, concentration 5.0 ×10^−6%
[14] = males, concentration 7.5 ×10^−6%
[15] = males, concentration 12.5 ×10^−6%

How did the “90% (the age, which 90% of the individuals reach)” value ([1]; females) turn out when `C[C@H](N)C(=O)N[C@@H](CCC(=O)O)C(=O)N[C@@H](CC(=O)O)C(=O)NCC(=O)O` [L-Ala-L-Glu-L-Asp-Gly tetrapeptide, L-alanyl-L-glutamyl-L-aspartyl-glycine] (H-AEDG-OH) was run?
The value was 76 days.

And the “ALS (average life span)” value ([1]; females)?
The value was 48 + days.

What about the “MRDT (mortality-rate doubling time)” value ([1]; females) of the same compound?
Its value is 3.9.

And the “Me (median life span)” value ([1]; females)?
Its value is 48.0 days.

And the “R · 10^−2 (parameter of Gomperz equation)” value ([1]; females)?
The value was 4.0 + days^−1.

What about the “90% (the age, which 90% of the individuals reach)” value ([1]; males) of the same compound?
The value was 62 days.

And the “ALS (average life span)” value ([1]; males)?
Its value is 42 + 1.3 days.

And the “MRDT (mortality-rate doubling time)” value ([1]; males)?
The value was 3.8.

What about the “Me (median life span)” value ([1]; males) of the same compound?
The value was 38.0 days.

And the “R · 10^−2 (parameter of Gomperz equation)” value ([1]; males)?
The value was 4.5 + days^−1.

What about the “Increase of the average life span” value ([1]; versus control) of the same compound?
Its value is 26%.

What about the “Reduction of the population real ageing rate (Gomperz parameter)” value ([1]; versus control) of the same compound?
The value was 40%.

What about the “Specific activity of catalase” value (catalase; females) of the same compound?
The value was 42.57 μmole H2O2/mg of protein per min.

What about the “Specific activity of catalase” value (catalase; males) of the same compound?
The value was 57.44* μmole H2O2/mg of protein per min.

And the “ALS ± statistic errors” value [2, 4]?
Its value is 35.41 ± 1.07.

What about the “Alterations in ALS” value [2, 4] of the same compound?
Its value is 13.4%.

And the “Alterations in ALS” value ([2]; females, concentration 0.01 ×10^−6%, listed as L-Ala-L-Glu-L-Asp-Gly)?
The value was “+13.4%”.

And the “ALS ± statistic errors” value [2, 5]?
Its value is 35.41 ± 1.07.

What about the “Alterations in ALS” value [2, 5] of the same compound?
The value was 11.8%.

What about the “Alterations in ALS” value ([2]; females, concentration 0.1 ×10^−6%, listed as L-Ala-L-Glu-L-Asp-Gly) of the same compound?
The value was “+11.8%”.

And the “ALS ± statistic errors” value [2, 6]?
The value was 35.76 ± 1.35.

What about the “Alterations in ALS” value [2, 6] of the same compound?
The value was −1.1%.

What about the “ALS ± statistic errors” value [2, 7] of the same compound?
Its value is 38.04 ± 1.56.

What about the “Alterations in ALS” value [2, 7] of the same compound?
The value was “+3.2%”.

And the “ALS ± statistic errors” value [2, 8]?
Its value is 31.16 ± 1.21.

What about the “Alterations in ALS” value [2, 8] of the same compound?
Its value is −7.6%.

And the “ALS ± statistic errors” value [2, 9]?
The value was 37.06 ± 1.12.

What about the “Alterations in ALS” value [2, 9] of the same compound?
The value was “+5.6%”.

What about the “Duration of stage development (lack of genotoxic effect)” value ([2]; in vivo) of the same compound?
The value was “did not alter the duration of their stage development”.

And the “ALS ± statistic errors” value [2, 10]?
Its value is 36.47 ± 1.09.

And the “Alterations in ALS” value [2, 10]?
Its value is “+12.0%”.

What about the “ALS ± statistic errors” value [2, 11] of the same compound?
Its value is 34.85 ± 1.18.

And the “Alterations in ALS” value [2, 11]?
Its value is “+10.8%”.

What about the “ALS ± statistic errors” value [2, 12] of the same compound?
Its value is 36.77 ± 1.44.

And the “Alterations in ALS” value [2, 12]?
Its value is “+13.3%”.

And the “ALS ± statistic errors” value [2, 13]?
The value was 37.74 ± 1.16.

What about the “Alterations in ALS” value [2, 13] of the same compound?
Its value is “+11.3%”.

What about the “ALS ± statistic errors” value [2, 14] of the same compound?
The value was 39.98 ± 0.99.

And the “Alterations in ALS” value [2, 14]?
Its value is −0.03%.

What about the “ALS ± statistic errors” value [2, 15] of the same compound?
The value was 33.96 ± 1.01.

And the “Alterations in ALS” value [2, 15]?
The value was −9.0%.

And the ALS ([3]; females, Experiment 1)?
Its ALS is 16.4 ± 1.68 days.

What about the “G 10^2” value ([3]; females, Experiment 1) of the same compound?
The value was 3.6 ± 0.61* days^−1.

What about the LSmax ([3]; females, Experiment 1) of the same compound?
Its LSmax is 39 days.

And the LnR0 ([3]; females, Experiment 1)?
Its LnR0 is -3.1 ± 0.21 day⁻¹.

What about the ALS ([3]; females, Experiment 2) of the same compound?
The ALS was 16.7 ± 0.70 days.

And the “G 10^2” value ([3]; females, Experiment 2)?
Its value is 4.2 ± 1.68 days^−1.

What about the LSmax ([3]; females, Experiment 2) of the same compound?
Its LSmax is 41 days.

And the “LnR0 (Gompertz parameter)” value ([3]; females, Experiment 2)?
Its value is -3.6 ± 0.41 day⁻¹.

What about the ALS ([3]; males, Experiment 1) of the same compound?
The ALS was 10.8 ± 1.09 days.

And the “G 10^2” value ([3]; males, Experiment 1)?
The value was 3.3 ± 2.25 days^−1.

What about the LSmax ([3]; males, Experiment 1) of the same compound?
Its LSmax is 39 days.

What about the “LnR0 (Gompertz parameter)” value ([3]; males, Experiment 1) of the same compound?
The value was -2.3 ± 0.26 day⁻¹.

And the ALS ([3]; males, Experiment 2)?
The ALS was 17.4 ± 0.88 days.

What about the “G 10^2” value ([3]; males, Experiment 2) of the same compound?
Its value is 4.7 ± 0.94* days^−1.

What about the LSmax ([3]; males, Experiment 2) of the same compound?
The LSmax was 45 days.

And the “LnR0 (Gompertz parameter)” value ([3]; males, Experiment 2)?
Its value is -3.0 ± 0.28 day⁻¹.
